target: T1, human TREM2 (Homo sapiens, UniProt Q9NZC2); assay: TREM2 agonist potency by cellular phosphorylation of Spleen Tyrosine Kinase (Syk), AlphaLisa, HEK293T-hTREM2 cells; format: cell-based; conditions: not given
T1 construct: expressed in transfected cells; host or cells: HEK293T (HEK293T-hTREM2 cells)
Experimental: Measurement of TREM2 agonist potency was done using a HEK cell line expressing human TREM2 and DAP12 (HEK293T-hTREM2 cells). Binding of small molecules to, and activation of, TREM2 increases the phosphorylation of Syk. The resultant levels of Syk phosphorylation are measured using a commercial AlphaLisa reagent kit. To perform the assay, HEK-hTREM2 cells were plated at 14,000 cells per well in a 384 well plate, in 25 μL of complete growth media and incubated at 37° C., 5% CO2 for 20-24 hours.
Prior to the assay, test compounds were diluted in the 384 well plates in assay buffer and allowed to equilibrate for 30 minutes. Growth media was removed from cell plates by inversion on blotting paper, and 25 μL of test articles in assay buffer was added to cells. Cells were incubated for 45 minutes at room temperature. After 45 minutes, assay buffer was removed and 10 μL of lysis buffer was added. Plates were shaken for 20 minutes at 350 RPM at room temperature. After complete lysis, AlphaLisa reagents were added to the lysate, and fluorescence intensity was measured using a Perkin Elmer Envision plate reader. Intensities were used to generate a standard curve, and % activation was calculated. Curve fitting was performed using Prism v9 software, log (agonist) vs response-variable slope (four parameters), and EC50s were calculated from the curve fit.
The results presented in Table B have been generated with the in vitro assay described above. This assay may be used to test any of the compounds described herein to assess and characterize a compound's ability to act as an agonist of TREM2.

T1 sequence (Q9NZC2 19-230): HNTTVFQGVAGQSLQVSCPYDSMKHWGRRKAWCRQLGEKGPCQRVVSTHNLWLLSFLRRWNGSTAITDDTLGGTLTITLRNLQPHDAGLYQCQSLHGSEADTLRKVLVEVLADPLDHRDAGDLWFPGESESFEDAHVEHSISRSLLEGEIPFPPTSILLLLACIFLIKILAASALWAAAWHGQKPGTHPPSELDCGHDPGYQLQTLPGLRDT
T1 sequence (O43914 22-113 partner): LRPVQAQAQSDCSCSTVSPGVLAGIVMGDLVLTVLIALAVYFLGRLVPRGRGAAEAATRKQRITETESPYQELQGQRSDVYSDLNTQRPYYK

EC50	Structure (SMILES)
< 100 nM	Cc1nc2cc(N3C[C@@H](C)O[C@@H](c4ccc(=O)n(C)c4)C3)nc(-c3ccc(F)cc3F)c2nc1C [Example 191, 5-((2S,6R)-4-(5-(2,4-difluorophenyl)-2,3-dimethylpyrido[3,4-b]pyrazin-7-yl)-6-methylmorpholin-2-yl)-1-methylpyridin-2 (1H)-one]
< 100 nM	[2H]C([2H])([2H])n1cc([C@H]2C[C@@H](c3nc(-c4ccc(C(F)(F)F)cc4F)c4nc(OC)c(C)nc4n3)CCO2)ccc1=O [Example 132, 5-[(2R,4S)-4-[4-[2-fluoro-4-(trifluoromethyl)phenyl]-6-methoxy-7-methyl-pteridin-2-yl]tetrahydropyran-2-yl]-1-(trideuteriomethyl)pyridin-2-one]

same assay, conditions: hTREM2 EC50 Data (HEK293 Cells); Syk phosphorylation, AlphaLisa; read-out: hTREM2 EC50

EC50	Structure (SMILES)
< 100 nM	Cc1nc2nc(N3C[C@@H](C)O[C@@H](c4ccc(=O)n(C)c4)C3)nc(-c3ccc(F)cc3F)c2nc1C [Example 16, 5-[(2S,6R)-4-[4-(2,4-difluorophenyl)-6,7-dimethyl-pteridin-2-yl]-6-methyl-morpholin-2-yl]-1-methyl-pyridin-2-one]
100 to 500 nM	Cc1nc2cc(C3CCO[C@@H](c4ccc(=O)n(C)c4)C3)nc(-c3ccc(F)cc3F)c2nc1C (stereo partly shown) [Example 194, 5-(4-(5-(2,4-difluorophenyl)-2,3-dimethylpyrido[3,4-b]pyrazin-7-yl)tetrahydro-2H-pyran-2-yl)-1-methylpyridin-2 (1H)-one]
< 100 nM	Cc1nc2nc([C@@H]3CCO[C@H](c4ccc(=O)n(C5CC5)c4)C3)nc(-c3ccc(C(F)(F)F)cc3F)c2nc1C [Example 65, 1-cyclopropyl-5-[(2S,4R)-4-[4-[2-fluoro-4-(trifluoromethyl)phenyl]-6,7-dimethyl-pteridin-2-yl]tetrahydropyran-2-yl]pyridin-2-one]
> 500 nM	Cc1nc2nc([C@@H]3CCO[C@H](c4ccc(=O)n(C)c4)C3)nc(-c3ccc(F)cc3F)c2nc1C [Example 2, 5-[(2S,4R)-4-[4-(2,4-difluorophenyl)-6,7-dimethyl-pteridin-2-yl]tetrahydropyran-2-yl]-1-methyl-pyridin-2-one]
< 100 nM	Cc1nc2nc([C@@H]3CCO[C@@H](c4ccc(=O)n(C)c4)C3)cc(C34CC(C(F)(F)F)(C3)C4)c2nc1C [Example 169, 1-methyl-5-[(2R,4R)-4-[2,3-dimethyl-8-[3-(trifluoromethyl)-1-bicyclo-[1.1.1]pentanyl]pyrido[2,3-b]pyrazin-6-yl]tetrahydropyran-2-yl]pyridin-2-one]
< 100 nM	Cc1nc2nc(N3C[C@@H](C)O[C@@H](c4ccc(=O)n(C)c4)C3)nc(-c3cnc(C(F)(F)F)s3)c2nc1C [Example 23, 5-[(2S,6R)-4-[6,7-dimethyl-4-[2-(trifluoromethyl)thiazol-5-yl]pteridin-2-yl]-6-methyl-morpholin-2-yl]-1-methyl-pyridin-2-one]
< 100 nM	Cc1nc2nc(N3C[C@@H](C)O[C@@H](c4ccc(=O)n(C)c4)C3)nc(-c3cnc(C4CC4)s3)c2nc1C [Example 21, 5-[(2S,6R)-4-[4-(2-cyclopropylthiazol-5-yl)-6,7-dimethyl-pteridin-2-yl]-6-methyl-morpholin-2-yl]-1-methyl-pyridin-2-one]

Second part, the compound before the results:

Structure (SMILES)	EC50
CC(C)=Nn1cc([C@H]2C[C@@H](c3nc(C45CC(C(F)(F)F)(C4)C5)c4cc(C(F)(F)F)c(C)nc4n3)CCO2)ccc1=O [Example 208, 5-((2R,4S)-4-(7-methyl-6-(trifluoromethyl)-4-(3-(trifluoromethyl)bicyclo[1.1.1]pentan-1-yl)pyrido[2,3-d]pyrimidin-2-yl)tetrahydro-2H-pyran-2-yl)-1-(propan-2-ylideneamino)pyridin-2 (1H)-one]	< 100 nM
Cc1nc2nc([C@H]3CCO[C@@H](c4ccc(=O)n(C56CC(C5)C6)c4)C3)nc(C34CC(C(F)(F)F)(C3)C4)c2nc1C [Example 120, 1-(1-bicyclo[1.1.1]pentanyl)-5-[(2R,4S)-4-[6,7-dimethyl-4-[3-(trifluoromethyl)-1-bicyclo-[1.1.1]pentanyl]pteridin-2-yl]tetrahydropyran-2-yl]pyridin-2-one]	< 100 nM
[2H]C([2H])([2H])n1cc([C@H]2C[C@@H](c3nc(C4CC45CC5(F)F)c4nc(C)c(C)nc4n3)CCO2)ccc1=O (stereo partly drawn) [Example 92, 5-((2R,4S)-4-(4-(4,4-difluorospiro[2.2]pentan-1-yl)-6,7-dimethylpteridin-2-yl)tetrahydro-2H-pyran-2-yl)-1-(methyl-d3)pyridin-2(1H)-one]	> 500 nM
COc1nc2c(C3CCC(F)(F)CC3)nc([C@H]3CCO[C@@H](c4ccc(=O)n(C)c4)C3)nc2nc1C [Example 138, 5-[(2R,4S)-4-[4-(4,4-difluorocyclohexyl)-6-methoxy-7-methyl-pteridin-2-yl]tetrahydropyran-2-yl]-1-methyl-pyridin-2-one]	< 100 nM
Cc1nc2nc([C@H]3CCO[C@@H](c4ccc(=O)n(C)c4)C3)nc([C@H]3CC[C@@H](F)CC3)c2nc1C [Example 43, 5-((2R,4S)-4-(4-((1s,4R)-4-fluorocyclohexyl)-6,7-dimethylpteridin-2-yl)tetrahydro-2H-pyran-2-yl)-1-methylpyridin-2(1H)-one]	< 100 nM
Cc1nc2nc([C@H]3CCO[C@@H](c4ccc(=O)n(N(C)C)c4)C3)nc(C34CC(C(F)(F)F)(C3)C4)c2nc1C [Example 178, 1-(dimethylamino)-5-[(2R,4S)-4-[6,7-dimethyl-4-[3-(trifluoromethyl)-1-bicyclo[1.1.1]pentanyl]pteridin-2-yl]tetrahydropyran-2-yl]pyridin-2-one]	< 100 nM
CCCN(CCC)n1cc([C@H]2C[C@@H](c3nc(C45CC(C(F)(F)F)(C4)C5)c4nc(C)c(C)nc4n3)CCO2)ccc1=O [Example 211, 5-[(2R,4S)-4-[6,7-dimethyl-4-[3-(trifluoromethyl)-1-bicyclo[1.1.1]pentanyl]pteridin-2-yl]tetrahydropyran-2-y1]-1-(dipropylamino)pyridin-2-one]	< 100 nM
Cc1nc2nc([C@H]3CCO[C@@H](c4ccc(=O)n(C)c4)C3)nc(C34CCC(C(C)(F)F)(CC3)C4)c2nc1C [Example 60, 5-((2R,4S)-4-(4-(4-(1,1-difluoroethyl)bicyclo[2.2.1]heptan-1-yl)-6,7-dimethylpteridin-2-yl)tetrahydro-2H-pyran-2-yl)-1-methylpyridin-2(1H)-one]	< 100 nM
Cc1noc(-c2cc3c(C45CC(C(F)(F)F)(C4)C5)nc([C@H]4CCO[C@@H](c5ccc(=O)n(C(F)F)c5)C4)nc3nc2C)n1 [Example 352]	> 500 nM
Cc1nc2nc([C@H]3CCO[C@@H](c4ccc(=O)[nH]c4)C3)nc(C34CC(C(F)(F)F)(C3)C4)c2cc1C(F)(F)F [Example 330, 5-((2R,4S)-4-(7-methyl-6-(trifluoromethyl)-4-(3-(trifluoromethyl)bicyclo[1.1.1]pentan-1-yl)pyrido[2,3-d]pyrimidin-2-yl)tetrahydro-2H-pyran-2-yl)pyridin-2(1H)-one]	< 100 nM
Cc1nc2c(C34CC(C(F)(F)F)(C3)C4)nc([C@H]3CCO[C@@H](c4ccc(=O)n(C)c4)C3)nc2c(=O)n1C (racemic) [Example 217, 2,3-dimethyl-6-[rac-(2R,4S)-2-(1-methyl-6-oxo-3-pyridyl)tetrahydropyran-4-yl]-8-[3-(trifluoromethyl)-1-bicyclo[1.1.1]pentanyl]pyrimido[5,4-d]pyrimidin-4-one]	< 100 nM
[2H]C([2H])([2H])c1nc2nc([C@H]3CCO[C@@H](c4ccc(=O)n(C5CC5)c4)C3)nc(C34CC(C(F)(F)F)(C3)C4)c2nc1C([2H])([2H])[2H] [Example 201, 5-((2R,4S)-4-(6,7-bis(methyl-d3)-4-(3-(trifluoromethyl)bicyclo[1.1.1]pentan-1-yl)pteridin-2-yl)tetrahydro-2H-pyran-2-yl)-1-cyclopropylpyridin-2 (1H)-one]	< 100 nM
Cc1nc2nc([C@H]3CCO[C@@H](c4ccc(=O)n(C)c4)C3)nc(C34CC(C(F)(F)F)(C3)C4)c2cc1C(F)(F)F [Example 326, 1-methyl-5-[(2R,4S)-4-[7-methyl-6-(trifluoromethyl)-4-[3-(trifluoromethyl)-1-bicyclo[1.1.1]pentanyl]pyrido[2,3-d]pyrimidin-2-yl]tetrahydropyran-2-yl]pyridin-2-one]	< 100 nM
CCn1cc([C@H]2C[C@@H](c3nc(C45CC(C(F)(F)F)(C4)C5)c4nc(C)c(C)nc4n3)CCO2)ccc1=O [Example 80, 5-[(2R,4S)-4-[6,7-dimethyl-4-[3-(trifluoromethyl)-1-bicyclo[1.1.1]pentanyl]pteridin-2-yl]tetrahydropyran-2-yl]-1-ethyl-pyridin-2-one]	< 100 nM
Cc1nc2nc([C@@H]3CCO[C@H](c4cnc(=O)n(C)c4)C3)nc(C34CC(C(F)(F)F)(C3)C4)c2nc1C [Example 162, 1-methyl-5-[(2S,4R)-4-[6,7-dimethyl-4-[3-(trifluoromethyl)-1-bicyclo[1.1.1]-pentanyl]pteridin-2-yl]tetrahydropyran-2-yl]pyrimidin-2-one]	< 100 nM
Cc1nc2nc([C@H]3CCO[C@@H](c4ccc(=O)n(N5CC=CC5)c4)C3)nc(C34CC(C(F)(F)F)(C3)C4)c2nc1C [Example 210, 1-(2,5-dihydropyrrol-1-yl)-5-[(2R,4S)-4-[6,7-dimethyl-4-[3-(trifluoromethyl)-1-bicyclo[1.1.1]pentanyl]pteridin-2-yl]tetrahydropyran-2-yl]pyridin-2-one]	< 100 nM

— US20260356841A1, “HETEROCYCLIC PYRIDINONE COMPOUNDS AS TRIGGERING RECEPTOR EXPRESSED ON MYELOID CELLS 2 AGONISTS AND METHODS OF USE” (Vigil Neuroscience, Inc., priority 2023, published 2026)
